Measured values taken from the NIST ThermoML archive (doi:10.1021/acs.jced.8b00684).
± gives the expanded uncertainty stated by the source.

Key:
[1] = 100 kPa, Liquid, Falling or rolling sphere viscometry
[2] = xn = mol fraction of the nth substance listed; conditions: 100 kPa, Liquid, Falling or rolling sphere viscometry, x2 = 0

SMILES | viscosity ([1]; 293.15 K) [mPa·s] | viscosity ([1]; 298.15 K) [mPa·s] | viscosity ([1]; 303.15 K) [mPa·s] | viscosity ([1]; 313.15 K) [mPa·s] | viscosity ([1]; 323.15 K) [mPa·s] | viscosity ([1]; 333.15 K) [mPa·s] | viscosity ([1]; 343.15 K) [mPa·s] | viscosity ([1]; 353.15 K) [mPa·s] | viscosity ([2]; 293.15 K) [mPa·s] | viscosity ([2]; 298.15 K) [mPa·s] | viscosity ([2]; 303.15 K) [mPa·s] | viscosity ([2]; 313.15 K) [mPa·s] | viscosity ([2]; 323.15 K) [mPa·s] | viscosity ([2]; 333.15 K) [mPa·s] | viscosity ([2]; 343.15 K) [mPa·s] | viscosity ([2]; 353.15 K) [mPa·s]
CCCCCCn1cc[n+](C)c1.F[B-](F)(F)F [1-hexyl-3-methylimidazolium tetrafluoroborate] | 293 ± 20 | 216 ± 13 | 163 ± 9 | 96.7 ± 4.3 | 61.8 ± 2.5 | 41.9 ± 1.7 | 29.5 ± 1.2 | 21.7 ± 0.9 | – | – | – | – | – | – | – | –
CC#N [acetonitrile] | 0.39 ± 0.02 | 0.37 ± 0.02 | 0.35 ± 0.02 | 0.33 ± 0.01 | 0.3 ± 0.01 | 0.28 ± 0.01 | 0.26 ± 0.01 | – | – | – | – | – | – | – | – | –
CC#N [acetonitrile] + CCCCCCn1cc[n+](C)c1.F[B-](F)(F)F | – | – | – | – | – | – | – | – | 0.39 ± 0.02 | 0.37 ± 0.02 | 0.35 ± 0.02 | 0.33 ± 0.01 | 0.3 ± 0.01 | 0.28 ± 0.01 | 0.26 ± 0.01 | –
C[S+](C)[O-] [dimethyl sulfoxide] | 2.21 ± 0.09 | 2.01 ± 0.08 | 1.84 ± 0.07 | 1.56 ± 0.06 | 1.34 ± 0.05 | 1.17 ± 0.05 | 1.03 ± 0.04 | 0.92 ± 0.04 | – | – | – | – | – | – | – | –
C[S+](C)[O-] [dimethyl sulfoxide] + CCCCCCn1cc[n+](C)c1.F[B-](F)(F)F | – | – | – | – | – | – | – | – | 2.21 ± 0.09 | 2.01 ± 0.08 | 1.84 ± 0.07 | 1.56 ± 0.06 | 1.34 ± 0.05 | 1.17 ± 0.05 | 1.03 ± 0.04 | 0.92 ± 0.04
